Measured values as given in the supplement of paper PMC6045584.
± gives the standard deviation of the averaged measurements.

Tests used:
MK0752 = compound: O=C(O)CC[C@H]1CC[C@@](c2cc(F)ccc2F)(S(=O)(=O)c2ccc(Cl)cc2)CC1 [MK0752]; assay: surviving fraction relative to DMSO-only wells; higher = less growth inhibition; conditions: exposure time: 5 days
Summary of the method: (§1)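 Viability values are CellTiter-Glo luminescence readings, given as surviving fraction against the median of DMSO-only wells. The readings were taken after 10 minutes at room temperature, following five days of continuous exposure to inhibitors at 0.5, 1, 5, 10, 50, 100, 500 and 1000 nM that began 24 hours after log-phase tumour cell lines were seeded at 250–500 cells per well in 384-well plates. Every line was screened three times and kept only if replicate Pearson r >0.7 and median Z' >0.3.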

PLX-4720 = compound: CCCS(=O)(=O)Nc1ccc(F)c(C(=O)c2c[nH]c3ncc(Cl)cc23)c1F [PLX-4720]; assay: as above; conditions: exposure time: 5 days
Summary of the method: as §1

Row | Test System | surviving fraction (MK0752; 0.5 nM) | surviving fraction (MK0752; 1 nM) | surviving fraction (MK0752; 5 nM) | surviving fraction (MK0752; 10 nM) | surviving fraction (MK0752; 50 nM) | surviving fraction (MK0752; 100 nM) | surviving fraction (MK0752; 500 nM) | surviving fraction (MK0752; 1000 nM) | surviving fraction (PLX-4720; 0.5 nM) | surviving fraction (PLX-4720; 1 nM) | surviving fraction (PLX-4720; 5 nM) | surviving fraction (PLX-4720; 10 nM) | surviving fraction (PLX-4720; 50 nM) | surviving fraction (PLX-4720; 100 nM) | surviving fraction (PLX-4720; 500 nM) | surviving fraction (PLX-4720; 1000 nM)
1 | VCAP PROSTATE | 1.04 ± 0.051 | 1.15 ± 0.15 | 1.11 ± 0.14 | 1.19 ± 0.13 | 1.12 ± 0.065 | 1.22 ± 0.12 | 1.14 ± 0.076 | 1.12 ± 0.15 | 0.915 ± 0.03 | 0.942 ± 0.048 | 0.934 ± 0.031 | 0.986 ± 0.074 | 0.966 ± 0.01 | 1.11 ± 0.14 | 1.08 ± 0.061 | 1.07 ± 0.023
2 | MDAMB453 BREAST | 1.04 ± 0.078 | 1.06 ± 0.052 | 1.1 ± 0.023 | 1.09 ± 0.051 | 1.08 ± 0.049 | 1.14 ± 0.034 | 1.01 ± 0.029 | 1.07 ± 0.043 | 0.963 ± 0.054 | 1.01 ± 0.048 | 1.04 ± 0.071 | 1.01 ± 0.044 | 0.977 ± 0.075 | 1.03 ± 0.083 | 1.03 ± 0.044 | 1.03 ± 0.042
3 | MDAMB157 BREAST | 0.881 ± 0.054 | 0.981 ± 0.045 | 0.969 ± 0.14 | 1.05 ± 0.022 | 1.11 ± 0.16 | 1.02 ± 0.15 | 0.971 ± 0.07 | 0.962 ± 0.065 | 0.848 ± 0.032 | 0.962 ± 0.069 | 0.958 ± 0.079 | 1 ± 0.093 | 0.914 ± 0.094 | 1.01 ± 0.027 | 0.868 ± 0.082 | 0.86 ± 0.039
4 | HELA CERVIX | 1.07 ± 0.098 | 1.14 ± 0.056 | 1.08 ± 0.023 | 1.09 ± 0.035 | 1.13 ± 0.16 | 1.2 ± 0.087 | 1.2 ± 0.034 | 1.2 ± 0.09 | 0.96 ± 0.039 | 0.947 ± 0.051 | 0.957 ± 0.069 | 0.953 ± 0.022 | 1 ± 0.046 | 1.01 ± 0.025 | 1 ± 0.055 | 1.06 ± 0.058
5 | LM7 BONE | 0.915 ± 0.045 | 0.93 ± 0.078 | 1.08 ± 0.096 | 0.996 ± 0.098 | 1.03 ± 0.035 | 1.05 ± 0.048 | 0.937 ± 0.11 | 0.945 ± 0.063 | 0.725 ± 0.067 | 0.715 ± 0.026 | 0.809 ± 0.033 | 0.825 ± 0.03 | 0.884 ± 0.066 | 0.948 ± 0.069 | 0.871 ± 0.028 | 0.87 ± 0.031
6 | SCC90 HEADNECK | 1.19 ± 0.014 | 1.11 ± 0.15 | 1.24 ± 0.11 | 1.25 ± 0.12 | 1.11 ± 0.064 | 1.13 ± 0.11 | 1.03 ± 0.093 | 1.11 ± 0.091 | 0.874 ± 0.13 | 0.819 ± 0.034 | 0.955 ± 0.011 | 0.965 ± 0.17 | 1.18 ± 0.12 | 1.25 ± 0.077 | 0.64 ± 0.1 | 0.539 ± 0.053
7 | OSHN BONE | 1.12 ± 0.034 | 1.14 ± 0.035 | 1.11 ± 0.018 | 1.11 ± 0.018 | 1.11 ± 0.034 | 1.13 ± 0.018 | 1.12 ± 0.02 | 1.09 ± 0.017 | 0.859 ± 0.011 | 0.882 ± 0.017 | 0.89 ± 0.025 | 0.904 ± 0.018 | 0.944 ± 0.035 | 0.9783 ± 0.0029 | 0.978 ± 0.019 | 0.975 ± 0.016
8 | HCT15 LARGE INTESTINE | 1.1 ± 0.032 | 1.08 ± 0.05 | 1.11 ± 0.032 | 1.09 ± 0.055 | 1.09 ± 0.029 | 1.1 ± 0.024 | 1.09 ± 0.044 | 1.082 ± 0.0067 | 0.419 ± 0.018 | 0.875 ± 0.043 | 0.755 ± 0.072 | 0.866 ± 0.029 | 0.513 ± 0.025 | 0.926 ± 0.046 | 0.886 ± 0.077 | 1.03 ± 0.026
9 | MFM223 BREAST | 1.21 ± 0.047 | 1.14 ± 0.13 | 1.16 ± 0.048 | 1.155 ± 0.0068 | 1.19 ± 0.03 | 1.23 ± 0.016 | 1.19 ± 0.1 | 1.19 ± 0.067 | 0.709 ± 0.032 | 0.758 ± 0.066 | 0.691 ± 0.098 | 0.754 ± 0.057 | 0.97 ± 0.11 | 1.01 ± 0.062 | 0.981 ± 0.025 | 1.01 ± 0.11
10 | HOS BONE | 1.03 ± 0.026 | 1.02 ± 0.037 | 1.058 ± 0.01 | 1.04 ± 0.016 | 1.1 ± 0.024 | 1.1 ± 0.035 | 1.03 ± 0.046 | 1.1 ± 0.023 | 0.92 ± 0.012 | 0.928 ± 0.014 | 0.935 ± 0.017 | 0.964 ± 0.0053 | 0.992 ± 0.015 | 0.995 ± 0.0027 | 0.96 ± 0.0078 | 1.01 ± 0.019
11 | SNU475 LIVER | 1.06 ± 0.028 | 1 ± 0.036 | 0.97 ± 0.052 | 1.02 ± 0.011 | 1.01 ± 0.019 | 1.03 ± 0.036 | 1.03 ± 0.037 | 0.965 ± 0.036 | 0.358 ± 0.028 | 0.806 ± 0.029 | 0.674 ± 0.01 | 0.808 ± 0.02 | 0.392 ± 0.029 | 0.919 ± 0.021 | 0.839 ± 0.024 | 1 ± 0.055
12 | SG31 HEADNECK | 1.16 ± 0.18 | 1.07 ± 0.14 | 1.02 ± 0.2 | 0.991 ± 0.21 | 0.881 ± 0.14 | 0.963 ± 0.099 | 1.04 ± 0.17 | 1.11 ± 0.095 | 0.492 ± 0.037 | 0.775 ± 0.056 | 0.765 ± 0.053 | 0.96 ± 0.18 | 0.642 ± 0.068 | 0.843 ± 0.048 | 0.963 ± 0.025 | 1.06 ± 0.12
13 | HS57T BREAST | 1.09 ± 0.048 | 1.09 ± 0.059 | 1.18 ± 0.061 | 1.14 ± 0.1 | 1.13 ± 0.048 | 1.19 ± 0.077 | 1.02 ± 0.038 | 1.01 ± 0.046 | 0.9 ± 0.06 | 0.898 ± 0.057 | 0.947 ± 0.069 | 0.964 ± 0.065 | 0.921 ± 0.059 | 0.982 ± 0.03 | 0.92 ± 0.019 | 0.962 ± 0.054
14 | SAOS2 BONE | 1.18 ± 0.028 | 1.2037 ± 0.00058 | 1.19 ± 0.12 | 1.22 ± 0.077 | 1.237 ± 0.0098 | 1.19 ± 0.076 | 1.12 ± 0.019 | 1.092 ± 0.0035 | 0.824 ± 0.019 | 0.866 ± 0.013 | 0.891 ± 0.0052 | 0.831 ± 0.049 | 1.08 ± 0.038 | 1.12 ± 0.077 | 1.108 ± 0.0092 | 1.13 ± 0.095
15 | SCC36 HEADNECK | 1.06 ± 0.15 | 1.13 ± 0.14 | 1.19 ± 0.064 | 0.962 ± 0.057 | 1.12 ± 0.035 | 1.03 ± 0.055 | 1.03 ± 0.047 | 0.965 ± 0.073 | 0.761 ± 0.06 | 0.694 ± 0.059 | 0.803 ± 0.036 | 0.76 ± 0.028 | 0.97 ± 0.058 | 0.983 ± 0.017 | 0.974 ± 0.13 | 0.958 ± 0.067
16 | HCC78 LUNG | 0.916 ± 0.12 | 0.966 ± 0.16 | 1.08 ± 0.16 | 1.07 ± 0.12 | 1.17 ± 0.062 | 1.06 ± 0.15 | 0.839 ± 0.24 | 0.957 ± 0.17 | 0.318 ± 0.06 | 1.01 ± 0.17 | 0.964 ± 0.06 | 1.05 ± 0.3 | 0.761 ± 0.13 | 1.01 ± 0.077 | 0.869 ± 0.04 | 0.951 ± 0.12
17 | PCI30 HEADNECK | 1.02 ± 0.12 | 1.04 ± 0.12 | 1.09 ± 0.057 | 1.1 ± 0.05 | 1.06 ± 0.076 | 1.08 ± 0.092 | 1.03 ± 0.047 | 1.04 ± 0.018 | 1.03 ± 0.057 | 0.987 ± 0.0079 | 1.01 ± 0.032 | 1.06 ± 0.011 | 1 ± 0.024 | 1.07 ± 0.082 | 0.938 ± 0.087 | 0.959 ± 0.07
18 | JURKAT HAEMATOPOIETIC AND LYMPHOID TISSUE | 1.06 ± 0.026 | 1.07 ± 0.021 | 1.07 ± 0.012 | 1.02 ± 0.051 | 1.04 ± 0.017 | 1.01 ± 0.026 | 0.988 ± 0.04 | 0.976 ± 0.023 | 0.9917 ± 0.0087 | 0.964 ± 0.02 | 0.935 ± 0.026 | 0.972 ± 0.04 | 0.981 ± 0.026 | 0.996 ± 0.059 | 1.03 ± 0.02 | 1.06 ± 0.016
19 | SG43 HEADNECK | 0.854 ± 0.3 | 0.901 ± 0.056 | 1.07 ± 0.43 | 0.862 ± 0.29 | 1.03 ± 0.18 | 0.934 ± 0.16 | 1.61 ± 0.055 | 1.08 ± 0.19 | 1.26 ± 0.34 | 1.19 ± 0.013 | 1.09 ± 0.053 | 1 ± 0.1 | 1.13 ± 0.13 | 1.27 ± 0.15 | 1.65 ± 0.22 | 1.7 ± 0.078
20 | MG63 BONE | 1.07 ± 0.047 | 1.07 ± 0.033 | 1.11 ± 0.037 | 1.08 ± 0.022 | 1.13 ± 0.055 | 1.1 ± 0.029 | 0.987 ± 0.029 | 0.955 ± 0.02 | 0.875 ± 0.01 | 0.884 ± 0.025 | 0.926 ± 0.016 | 0.937 ± 0.016 | 0.941 ± 0.012 | 0.958 ± 0.015 | 0.933 ± 0.013 | 0.963 ± 0.033
21 | MDAMB468 BREAST | 1.03 ± 0.085 | 1.01 ± 0.074 | 1.1 ± 0.035 | 1.07 ± 0.07 | 1.17 ± 0.023 | 1.17 ± 0.028 | 1.07 ± 0.035 | 1.1 ± 0.035 | 0.827 ± 0.026 | 0.828 ± 0.0072 | 0.895 ± 0.028 | 0.928 ± 0.024 | 1.04 ± 0.03 | 1.08 ± 0.037 | 0.961 ± 0.045 | 0.924 ± 0.025
